The numbers were not newly measured in US5859021A, “Antiviral combinations” (priority 1991, dated 1999), which cites them from elsewhere.

One data set relates to patients with AIDS. The note with it: for toxicity in patients: AIDS patients, AZT: long-term therapy.
Data set [1] has as its system normal human bone marrow progenitor cells. Particulars: combination with high-dose AZT, antiviral activity not affected.
The conditions of data set [2]: versus (+) enantiomer.

On to `OC[C@@H]1CC[C@H](n2cnc3c(O)ncnc32)O1` [ddI, 2',3'-dideoxyinosine], for which the “inhibition of HIV replication in vitro” value in the data set with HIV (in vitro) is listed as “inhibit HIV replication in vitro”. For the same compound, the toxicity in patients entry with patients with AIDS was “pancreatitis and peripheral neuropathy”.
On to `Nc1ccn([C@H]2CC[C@@H](CO)O2)c(=O)n1` [ddC, 2',3'-dideoxycytidine], for which the “antiviral activity of AZT in combination with ddC” value with HIV is recorded as “without affecting its antiviral activity”. Further, in the data set with HIV (in vitro), the “inhibition of HIV replication in vitro” value is recorded as “inhibit HIV replication in vitro”. In addition, in the data set on patients with AIDS, the toxicity in patients result is given as “peripheral neurophathy”. Moreover, the “effect on bone marrow cytotoxicity of high-dose AZT” value in data set [1] is on record as “eliminates the bone marrow cytotoxicity of high-dose AZT”.
Turning to `Nc1ccn([C@@H]2CS[C@H](CO)O2)c(=O)n1` [3TC], the “cytotoxicity compared with the (+) enantiomer” value in data set [2] is listed as “considerably lower cytotoxicity than the (+) enantiomer”.
Turning to `Cc1cn([C@H]2C[C@H](N=[N+]=[N-])[C@@H](CO)O2)c(=O)[nH]c1=O` [AZT, 3'-azido-3'-deoxythymidine], the “inhibition of HIV replication in vitro” value in the data set on HIV (in vitro) is reported as “inhibit HIV replication in vitro”. In addition, the “antiviral activity in combination” value in the data set on HIV (in vitro, with recombinant soluble CD4, castanospermine and recombinant interferon alpha) is “synergistic antiviral activity”. In addition, the toxicity in patients entry with patients with AIDS was “bone-marrow toxicity”. Also, in the data set with patients with AIDS (long-term AZT therapy), the “appearance of resistant HIV-1 variants” value is “appearance of AZT-resistant variants of HIV-1”. Also, the morbidity and mortality entry in the data set on patients with AIDS (patients with AIDS) is “reduces morbidity and mortality”.
With `Nc1ccn([C@@H]2CS[C@H](CO)O2)c(=O)n1` (racemic) [compound of formula (I), (±)-(cis)-4-Amino-1-(2-hydroxymethyl-1,3-oxathiolan-5-yl)-(1H)-pyrimidin-2-one], in the data set on HIV, the “antiviral activity against HIV” value is listed as “having antiviral activity”.
